{"source": "paper PMC9866339", "about": "“In Silico and In Vitro Study of Janus Kinases Inhibitors from Naphthoquinones” (Molecules, 2023)", "key": {"JAK3": {"target": "T1, JAK3 (Homo sapiens, UniProt P52333)", "T1 construct": "purchased Sigma-Aldrich SRP0173", "T1 sequence (P52333 781-1124 limits assumed)": "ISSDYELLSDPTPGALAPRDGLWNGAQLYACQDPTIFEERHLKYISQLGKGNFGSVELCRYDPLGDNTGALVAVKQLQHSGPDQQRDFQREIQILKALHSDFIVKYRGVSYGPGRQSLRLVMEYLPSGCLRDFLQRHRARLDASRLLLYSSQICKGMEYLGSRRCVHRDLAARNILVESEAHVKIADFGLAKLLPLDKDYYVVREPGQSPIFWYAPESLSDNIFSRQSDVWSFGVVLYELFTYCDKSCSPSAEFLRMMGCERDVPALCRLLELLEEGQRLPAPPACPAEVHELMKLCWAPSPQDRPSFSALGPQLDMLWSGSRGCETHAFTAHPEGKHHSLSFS", "experiment": "ADP-Glo kinase assay, JAK3", "format": "biochemical", "details": "5 μM ATP, read-out: IC50 ± SEM JAK3"}, "JAK2": {"target": "T2, JAK2 (Homo sapiens, UniProt O60674)", "T2 construct": "purchased Sigma-Aldrich SRP0171", "T2 sequence (O60674 808-1132 limits assumed)": "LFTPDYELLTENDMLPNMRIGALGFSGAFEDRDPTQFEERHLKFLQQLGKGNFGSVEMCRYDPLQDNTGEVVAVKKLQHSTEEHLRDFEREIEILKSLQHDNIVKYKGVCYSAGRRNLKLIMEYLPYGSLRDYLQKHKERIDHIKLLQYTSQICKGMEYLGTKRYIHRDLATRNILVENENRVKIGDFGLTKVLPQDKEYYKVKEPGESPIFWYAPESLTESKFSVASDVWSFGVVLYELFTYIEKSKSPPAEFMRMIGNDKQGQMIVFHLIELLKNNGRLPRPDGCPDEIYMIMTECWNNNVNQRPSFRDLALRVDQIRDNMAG", "experiment": "ADP-Glo kinase assay, JAK2", "format": "biochemical", "details": "5 μM ATP, read-out: IC50 ± SEM JAK2"}, "TF1 cells [1]": {"tested_on": "TF1 cells", "details": "at IC50, 72 h, dot plot quadrant"}, "TF1 cells [2]": {"tested_on": "TF1 cells", "experiment": "Presto Blue cytotoxicity assay on TF1 cells", "format": "cell-based, human", "details": "for Cytotoxicity screening on TF1 cells: 10 μM, Presto Blue assay, result in words; for IC50: Homo sapiens, TF-1, 72 h, read-out: IC50 against TF1 cell viability"}, "TF1 cells [3]": {"tested_on": "TF1 cells", "details": "at IC50, 72 h, dot plot quadrant", "remark": "listed apart in the source"}, "HEL cells": {"tested_on": "HEL cells", "experiment": "Presto Blue cytotoxicity assay on HEL cells", "format": "cell-based, human", "details": "for Cytotoxicity screening on HEL cells: 10 μM, result in words; for IC50: Homo sapiens, HEL, 72 h, read-out: IC50 against HEL cell viability"}, "human keratinocytes": {"tested_on": "human keratinocytes", "set-up": "method as in PMID 28250347, PMID 22845014", "details": "result in words; cited from earlier work"}, "HEL cell": {"tested_on": "HEL cell", "details": "read-out: IC50 HEL cell growth; cited from earlier work"}, "JAK1": {"tested_on": "JAK1", "details": "read-out: IC50 JAK1; cited from earlier work"}}, "note": "Where two headings read alike, the source gives them in different places.", "data": [{"compound": "CCC(=O)c1cc2c(o1)C(=O)c1ccccc1C2=O", "note": "[2′-methyl napabucasin]", "values": [{"measurement": "IC50", "setting": "JAK3", "value": "10.2 ± 0.66", "unit": "nM"}, {"measurement": "IC50", "setting": "JAK2", "value": "11.1 ± 0.13", "unit": "nM"}, {"measurement": "Apoptotic cells, caspase 3/7", "setting": "TF1 cells [1]", "value": 13.50, "unit": "%"}, {"measurement": "Apoptotic/Dead cells, caspase 3/7", "setting": "TF1 cells [1]", "value": 22.35, "unit": "%"}, {"measurement": "Dead cells, caspase 3/7", "setting": "TF1 cells [1]", "value": 0.70, "unit": "%"}, {"measurement": "Live cells, caspase 3/7", "setting": "TF1 cells [1]", "value": 63.45, "unit": "%"}, {"measurement": "Cytotoxicity screening on TF1 cells", "setting": "TF1 cells [2]", "value": "highly potent cell growth inhibition"}, {"measurement": "IC50", "setting": "TF1 cells [2]", "value": 18.1, "unit": "µM"}, {"measurement": "Dead cells, annexin V", "setting": "TF1 cells [3]", "value": 1.10, "unit": "%"}, {"measurement": "Early Apop. cells, annexin V", "setting": "TF1 cells [3]", "value": 25.42, "unit": "%"}, {"measurement": "Late Apop./Dead cells, annexin V", "setting": "TF1 cells [3]", "value": 51.16, "unit": "%"}, {"measurement": "Live cells, annexin V", "setting": "TF1 cells [3]", "value": 22.32, "unit": "%"}, {"measurement": "Cytotoxicity screening on HEL cells", "setting": "HEL cells; Presto Blue assay", "value": "highly potent cell growth inhibition"}, {"measurement": "IC50", "setting": "HEL cells", "value": 6.65, "unit": "µM"}, {"measurement": "Cytotoxicity against human keratinocytes", "setting": "human keratinocytes", "value": "potent cytotoxicity"}]}, {"compound": "N#Cc1ccc(C2C3=C(CCCC3=O)OC3=C2C(=O)c2ccccc2C3=O)cc1", "note": "(stereo not shown) [CM363]", "values": [{"measurement": "IC50", "setting": "HEL cell", "value": 1300, "unit": "nM"}]}, {"compound": "O=C1C=CC(=O)c2c(O)cccc21", "note": "[Juglone, juglone]", "values": [{"measurement": "IC50", "setting": "HEL cells; Presto Blue assay, mean ± SEM", "value": "8.67 ± 0.17", "unit": "µM"}]}, {"compound": "O=C1C=C(O)C(=O)c2ccccc21", "note": "[Lawsone, 2-hydroxy-1,4-naphthoquinone]", "values": [{"measurement": "Cytotoxicity screening on TF1 cells", "setting": "TF1 cells [2]", "value": "inhibited the growth of both cell types poorly"}, {"measurement": "Cytotoxicity screening on HEL cells", "setting": "HEL cells; Presto Blue assay", "value": "inhibited the growth of both cell types poorly"}]}, {"compound": "CC1=CC(=O)c2ccccc2C1=O", "note": "[Menadione, menadione]", "values": [{"measurement": "Cytotoxicity screening on HEL cells", "setting": "HEL cells; Presto Blue assay", "value": "high cytotoxicity"}, {"measurement": "IC50", "setting": "HEL cells; Presto Blue assay, mean ± SEM", "value": "7.99 ± 1.22", "unit": "µM"}]}, {"compound": "CC(=O)c1cc2c(o1)C(=O)c1ccccc1C2=O", "note": "[Napabucasin, napabucasin]", "values": [{"measurement": "IC50", "setting": "JAK3", "value": "14.8 ± 2.37", "unit": "nM"}, {"measurement": "IC50", "setting": "JAK2", "value": "12.6 ± 2.12", "unit": "nM"}, {"measurement": "Apoptotic cells, caspase 3/7", "setting": "TF1 cells [1]", "value": 25.85, "unit": "%"}, {"measurement": "Apoptotic/Dead cells, caspase 3/7", "setting": "TF1 cells [1]", "value": 18.10, "unit": "%"}, {"measurement": "Dead cells, caspase 3/7", "setting": "TF1 cells [1]", "value": 0.30, "unit": "%"}, {"measurement": "Live cells, caspase 3/7", "setting": "TF1 cells [1]", "value": 55.75, "unit": "%"}, {"measurement": "Cytotoxicity screening on TF1 cells", "setting": "TF1 cells [2]", "value": "highly potent cell growth inhibition"}, {"measurement": "IC50", "setting": "TF1 cells [2]", "value": 9.57, "unit": "µM"}, {"measurement": "Dead cells, annexin V", "setting": "TF1 cells [3]", "value": 3.50, "unit": "%"}, {"measurement": "Early Apop. cells, annexin V", "setting": "TF1 cells [3]", "value": 29.80, "unit": "%"}, {"measurement": "Late Apop./Dead cells, annexin V", "setting": "TF1 cells [3]", "value": 39.24, "unit": "%"}, {"measurement": "Cytotoxicity screening on HEL cells", "setting": "HEL cells; Presto Blue assay", "value": "highly potent cell growth inhibition"}, {"measurement": "IC50", "setting": "HEL cells", "value": 3.31, "unit": "µM"}]}, {"compound": "N#CC[C@H](C1CCCC1)n1cc(-c2ncnc3[nH]ccc23)cn1", "note": "[Ruxolitinib, ruxolitinib, reference compound]", "values": [{"measurement": "IC50", "setting": "TF1 cells [2]", "value": "12.2 ± 0.58", "unit": "µM"}, {"measurement": "IC50", "setting": "HEL cells", "value": "26.04 ± 0.26", "unit": "µM"}, {"measurement": "IC50", "setting": "JAK1", "value": "[…]"}]}]}
